Reference: patent US12310963B2, “Pyrazole derivatives and use thereof” (Tarapeutics Science Inc., priority 2019, dated 2025)

What was measured:
BaF3 = test: Growth of parental BaF3 cells, Cell Titer-Glo, 72 h; type: cell-based; conditions: Mus musculus
From the text: (§1) In this example, mouse primary B cell BaF3 (purchased from ATCC, U.S.A.) was used. In addition, in this example, mouse BaF3-tel-PDGFRα (stably expressing PDGFRα kinase), mouse BaF3-tel-PDGFRβ (stably expressing PDGFRβ kinase), BaF3-P210 (stably expressing ABL kinase), BaF3-P210-T315I (stably expressing ABL-T315I kinase), BaF3-FL-BRAF-V600E (stably expressing BRAF-V600E kinase), BaF3-TEL-cKIT (stably expressing cKIT kinase), BaF3-TEL-VEGFR2 (stably expressing VEGFR2 kinase), BaF3-TEL-FGFR2 (stably expressing FGFR2 kinase) were also used. The above-mentioned cell trains were all constructed in our laboratory by the method as follows. The sequences of human BCR-ABL (P210 or P210/T315I mutated), full-length BRAF-V600E, cKIT, VEGFR2, FGFR2, PDGFRα, PDGFRβ kinase region were amplified respectively via PCR, and inserted respectively into a MSCV-Puro vector (purchased from Clontech) having a N-terminal TEL fragment and/or NPM fragment and/or TPR fragment, and stably transferred into mouse BaF3 cells by the retroviral method, and the growth factor IL-3 was removed. Eventually, cell lines which are transferred into proteins depending on PDGFRα, PDGFRβ were obtained.
(§2) In this example, solutions of the test compound at different concentrations (0.000508 μM, 0.00152 μM, 0.00457 μM, 0.0137 μM, 0.0411 μM, 0.123 μM, 0.370 μM, 1.11 μM, 3.33 μM, 10 μM) were added to the above cells. The cells were incubated for 72 hours.

[1] = tested on: BaF3-tel-PDGFRβ (stably expressing PDGFRβ kinase); test: Growth of BaF3-tel-PDGFRβ cells, Cell Titer-Glo, 72 h; type: cell-based, mouse
From the text: as §1, §2

[2] = tested on: BaF3-tel-PDGFRα (stably expressing PDGFRα kinase); test: Growth of BaF3-tel-PDGFRα cells, Cell Titer-Glo, 72 h; type: cell-based, mouse
From the text: as §1, §2

[3] = tested on: pulmonary arterial hypertension (PAH); test: Rat model of pulmonary arterial hypertension (PAH), monocrotaline-induced; type: in vivo; conditions: 50 mg/kg by gavage, 28 days
Method: SCXK (SU) 2017-0001. These rats were fed with conventional pellet feeds (Jiangsu Xietong Bio. Co., Ltd.), and were raised in a clean animal room with 12h/12h light/dark cycle. The rats were fed with foods and drinking water on an ad libitum basis. The temperature was maintained at 20-26° C., and the relative humidity was 40-70%. 120 SD rats were divided into 24 cages with 5 rats per group. […] The animals were treated in strict accordance with animal ethics regulations throughout the experiment. According to the method described in “Pharmaceutical experimental animal models: Fabrication and application” and the Standard Operating Procedure for PAH Model Construction of Model Animal Center, rats were intraperitoneally injected with a solution of 1% monocrotaline (MCT, purchased from Sigma, U.S.A.) once at a dose of 35 mg/kg. On Day 7 after the first injection of MCT, MCT was injected again at a dose of 20 mg/kg. The rats in the normal control group were intraperitoneally injected with an equivalent amount of water as a blank solvent. The specific steps were as follows: After the rats in each of the cages were fasted for 8 hours, each of the rats was weighed and recorded for the basic body weight after fasting; based on the measured basic body weight for each of the rats, the amount of MCT required to be injected for each of the rats was calculated according to the modeling dose of 35 mg/kg; based on the amount of MCT required to be injected for each of the rats, the dose for injection of a 1% MCT solution was calculated; the rats were fixed in a holder and intraperitoneally injected with the 1% MCT solution at the calculated dose; the rats were returned to the cages for routine feeding after the injection. […] The blood gas analyzer was operated following the standard operation procedure. […] Each of the rats was administered by gavage once a day starting from the day of regrouping at Week 4. The rats in the negative control group were daily administered by gavage with an equal volume of methylcellulose as vehicle. The rats in each of the groups were administered by gavage for consecutive 4 weeks (i.e., 28 days). […] The rats were weighed after fasting overnight twice a week. The administration dosage was calculated based on the weighing results. […] After the rats were under anesthesia, the pulmonary arterial pressure and the right ventricular systolic pressure of rats were measured. […] The steps were as follows. A No. 3.5 umbilical vein catheter was connected to a system pressure transducer. A formulated solution of […] sodium (purchased from Sangon) was filled into the transducer and the catheter, and bubbles were discharged. The anesthetized rat was placed on a surgical anatomical plate that is adjustable in its temperature. The temperature of the plate was adjusted to be maintained at about 37° C. The rat was fixed in supine position. The neck skin was cut with scissors to the edge of the clavicle, followed by blunt dissection of subcutaneous tissues and muscles, exposing the right external jugular vein. The adipose tissue on the surface was removed with ophthalmic surgical scissors. The external jugular vein was ligated at the […] surgical thread, and a loose knot was made at the proximal end for reserve. The external jugular vein was gently lifted with ophthalmic tweezers and cut with ophthalmic scissors to make a “V” opening. The catheter was quickly inserted, and the loose knot at the proximal end was tightened slightly to prevent bleeding. […] The catheter was further inserted slowly forward, and entered into the pulmonary artery at about 5 cm. […] The blood was transferred into an anticoagulation tube, and loaded in a blood gas analyzer to determine the indexes of partial pressure of oxygen (pO2), partial pressure of carbon dioxide (pCO2) and blood oxygen saturation (SaO2) in the blood.

SMILES | GI50 (BaF3) [nM] | GI50 [1] [nM] | GI50 [2] [nM] | RVI (right ventricular hypertrophy index) decrease as compared with the negative control group [3] [%]
CN1CCN(c2cncc(-c3cn(-c4cc(NC(=O)c5cccc(Cl)n5)ccc4F)nn3)c2)CC1 [Compound 28, 6-chloro-N-(4-fluoro-3-(4-(5-(4-methylpiperazin-1-yl)pyridin-3-yl)-1H-1,2,3-triazol-1-yl)phenyl)picolinamide] | 3900 | < 10 | < 10 | –
CN1CCN(c2cncc(-c3cn(-c4cc(NC(=O)c5cccc(F)n5)ccc4F)nn3)c2)CC1 [Compound 29, 6-fluoro-N-(4-fluoro-3-(4-(5-(4-methylpiperazin-1-yl)pyridin-3-yl)-1H-1,2,3-triazol-1-yl)phenyl)picolinamide] | 2840 | < 10 | < 10 | –
Cc1ccc(NC(=O)c2cccc(C(F)(F)F)n2)cc1-n1cc(-c2cncc(N3CC4(COC4)C3)c2)cn1 [Compound 32, N-(3-(4-(5-(2-oxa-6-aza-spiro[3.3]hept-6-yl]pyridin-3-yl)-1H-pyrazol-1-yl)-4-methylphenyl)-6-(trifluoromethyl)picolinamide] | 9200 | < 10 | < 10 | –
Cc1ccc(NC(=O)c2ccnc(C(F)(F)F)c2)cc1-n1cc(-c2cncc(N3CC4(COC4)C3)c2)cn1 [Compound 33, N-(3-(4-(5-(2-oxa-6-aza-spiro[3.3]hept-6-yl]pyridin-3-yl)-1H-pyrazol-1-yl)-4-methylphenyl)-2-(trifluoromethyl)isonicotinamide] | 6490 | < 10 | < 10 | –
Cc1ccc(NC(=O)c2cncc(C(F)(F)F)c2)cc1-n1cc(-c2cncc(N3CC4(COC4)C3)c2)cn1 [Compound 34, N-(3-(4-(5-(2-oxa-6-aza-spiro[3.3]hept-6-yl]pyridin-3-yl)-1H-pyrazol-1-yl)-4-methylphenyl)-5-(trifluoromethyl)nicotinamide] | > 10000 | < 10 | < 10 | –
Cc1ccc(NC(=O)c2cc(C(F)(F)F)ccn2)cc1-n1cc(-c2cncc(N3CC4(COC4)C3)c2)cn1 [Compound 35, N-(3-(4-(5-(2-oxa-6-aza-spiro[3.3]hept-6-yl]pyridin-3-yl)-1H-pyrazol-1-yl)-4-methylphenyl)-4-(trifluoromethyl)picolinamide] | 5840 | < 10 | < 10 | –
Cc1ccc(NC(=O)c2cccc(Cl)n2)cc1-n1cc(-c2cncc(N3CC4(COC4)C3)c2)cn1 [Compound 36, N-(3-(4-(5-(2-oxa-6-aza-spiro[3.3]hept-6-yl]pyridin-3-yl)-1H-pyrazol-1-yl)-4-methylphenyl)-6-chloropicolinamide] | 9760 | < 10 | < 10 | –
Cc1ccc(NC(=O)c2cccc(F)n2)cc1-n1cc(-c2cncc(N3CC4(COC4)C3)c2)cn1 [Compound 37, N-(3-(4-(5-(2-oxa-6-aza-spiro[3.3]hept-6-yl]pyridin-3-yl)-1H-pyrazol-1-yl)-4-methylphenyl)-6-fluoropicolinamide] | 9850 | < 10 | < 10 | –
Cc1ccc(NC(=O)c2cccc(C(F)(F)F)n2)cc1-n1cc(-c2cncc(N3CC4(COC4)C3)c2)nn1 [Compound 38, N-(3-(4-(5-(2-oxa-6-aza-spiro[3.3]hept-6-yl]pyridin-3-yl)-1H-1,2,3-triazol-1-yl)-4-methylphenyl)-6-(trifluoromethyl)picolinamide] | > 10000 | < 10 | < 10 | –
Cc1ccc(NC(=O)c2ccnc(C(F)(F)F)c2)cc1-n1cc(-c2cncc(N3CC4(COC4)C3)c2)nn1 [Compound 39, N-(3-(4-(5-(2-oxa-6-aza-spiro[3.3]hept-6-yl]pyridin-3-yl)-1H-1,2,3-triazol-1-yl)-4-methylphenyl)-2-(trifluoromethyl)isonicotinamide] | > 10000 | < 10 | < 10 | –
Cc1ccc(NC(=O)c2cncc(C(F)(F)F)c2)cc1-n1cc(-c2cncc(N3CC4(COC4)C3)c2)nn1 [Compound 40, N-(3-(4-(5-(2-oxa-6-aza-spiro[3.3]hept-6-yl]pyridin-3-yl)-1H-1,2,3-triazol-1-yl)-4-methylphenyl)-5-(trifluoromethyl)nicotinamide] | 9990 | < 10 | < 10 | –
Cc1ccc(NC(=O)c2cc(C(F)(F)F)ccn2)cc1-n1cc(-c2cncc(N3CC4(COC4)C3)c2)nn1 [Compound 41, N-(3-(4-(5-(2-oxa-6-aza-spiro[3.3]hept-6-yl]pyridin-3-yl)-1H-1,2,3-triazol-1-yl)-4-methylphenyl)-4-(trifluoromethyl)picolinamide] | 3660 | < 10 | < 10 | –
COc1ccccc1Oc1c(NS(=O)(=O)c2ccc(C(C)(C)C)cc2)nc(-c2ncccn2)nc1OCCO [bosentan, reference compound] | – | – | – | 15.7
